Results as given in US20200281904A1, “PROPHYLACTIC AND/OR THERAPEUTIC AGENT FOR DISEASES INVOLVING IDO EXPRESSION” (TAIHO PHARMACEUTICAL CO., LTD., priority 2017, published 2020).
pIC50: −log10 of the molar value.

Tests used:
IDO protein = assay: Inhibitory effect on IDO protein expression, Western blotting; format: cell-based; details: human stomach cancer line NCI-N87; IFNγ 100 U/mL; 0.001, 0.01, 0.1 and 1 μM; 24 hours; FIG. 1
Procedure: Protein expression was detected by a Western blotting method. A human stomach cancer line NCI-N87 (CRL-5822) was purchased from American Type Culture Collection (ATCC). The cells were cultured in RPMI1640 (Wako Pure Chemical Industries, Ltd.) medium supplemented with 10% fetal bovine serum (FBS). The cells were seeded in a 6-well plate (#140675, Nunc) at 1×10^6 cells per well. The cells were cultured in a 5% CO2 incubator at 37° C. for 24 hours, INFγ (PeproTech, Inc.) at 100 U/mL and test substances [tanespimycin (Biotrend), ganetespib, BIIBO21 and Compound 1] in amounts of 0.001 μM, 0.01 μM, 0.1 μM and 1 μM each were then added, and the cells were further cultured for 24 hours. After the culturing, the cells were washed with ice-cooled PBS, and the cells were then lysed with a cytolytic agent. The cell lysate solution was centrifuged, and the soluble fraction was then removed, and subjected to thermal denaturation, followed by protein separation by SDS-PAGE.
10-fold dilution of TBST (Santa Cruz) with Milli-Q water was used as a washing solution, and the TBST solution containing 5% Blocking One (nacalai tesque) was used as an antibody diluting solution.
After completion of SDS-PAGE, the protein was transferred to a PVDF membrane (Trans-Blot Turbo Midi PVDF Transfer Pack, Biorad) by using a blotting device (Trans-Blot Turbo Transfer System, Biorad). The membrane after the transfer was blocked by incubation at room temperature for 60 minutes or more with Blocking One. […] The PVDF membrane was washed three times with the washing solution, and then immersed in SuperSignal West Pico Chemiluminescent Substrate (Thermo Scientific) for detection of GAPDH, or SuperSignal West Dura Extended Duration Substrate (Thermo Scientific) for detection of IDO, and chemiluminescence was detected by using Image Analyzer Amersham Imager 600QC (GE Healthcare Japan Corporation).

[1] = system: cells expressing IDO due to addition of IFNγ (IDO-positive cells); assay: Suppressive effect on growth in IDO-positive cells (all four lines, result in words); format: cell-based, human; details: GIST-T1, HCC827, NCI-H1975, NCI-N87 with IFNγ 100 U/mL; 0.001-10 μM; 72 hours; FIG. 3
Procedure: (§1) Human stomach cancer line NCI-N87 (CRL-5822), human lung cancer line NCI-H1975 (CRL-5908) and human lung cancer line HCC827 (CRL-2868) were purchased from ATCC, and human gastrointestinal stromal tumor line GIST-T1 (GIST01) was purchased from Cosmo Bio Co., Ltd. NCI-N87, NCI-H1975 and HCC827 were cultured in RPM11640 (Wako Pure Chemical Industries, Ltd.) medium supplemented with 10% FBS, and GIST-T1 was cultured in DMEM (Wako Pure Chemical Industries, Ltd.) medium supplemented with 10% FBS. The IDO protein and GAPDH were detected in the same manner as in Example 1 described above.
The amount of ATP generated from surviving cells was determined by CellTiter-Glo2.0 Assay (# G9243, Promega Corporation) to evaluate the cell growth inhibition ability of test substance. […] The intensity of luminescence was measured using a microplate reader (EnSpire™ Multimode Plate Reader, PerkinElmer Japan Co., Ltd.), and used as an index of the number of surviving cells in each well. Using the intensity of luminescence of a group not treated with a test substance (control group) as a control, the cell survival rate (%) was calculated by using the following equation. […]

NCI-H1975 = assay: Cell growth inhibition, CellTiter-Glo2.0 Assay, IFNγ added; format: cell-based; details: Homo sapiens, IFNγ 100 U/mL, 72 hours, number of surviving cells reduced to 50% of control
Procedure: as §1
(§2) The amount of ATP generated from surviving cells was determined by CellTiter-Glo2.0 Assay (# G9243, Promega Corporation) to evaluate the cell growth inhibition ability of test substance. The cells of GIST-T1, HCC827, NCI-H1975 and NCI-N87 were seeded in 96-well plates (#165305, Thermo Scientific) at 1×10^4 (NCI-N87), 2×10^3 (HCC827 and HCI-H1975) and 3×10^3 (GIST-T1) per well, and cultured in a 5% CO2 incubator at 37° C. for 24 hours. After the culturing for 24 hours, INFγ (PeproTech) at 100 U/mL and a test substance (Compound 1) in amounts of 0.001 μM, 0.003 μM, 0.01 μM, 0.03 μM, 0.1 μM, 0.3 μM, 1 μM, 3 μM and 10 μM each were added, and further cultured for 72 hours. Equivalent amount of CellTiter-Glo2.0 Assay reagent as the medium was added to each well, the mixture was stirred for 2 minutes using a shaker under shading condition, and the plate was then left to stand at room temperature for about 10 minutes. The intensity of luminescence was measured using a microplate reader (EnSpire™ Multimode Plate Reader, PerkinElmer Japan Co., Ltd.), and used as an index of the number of surviving cells in each well. Using the intensity of luminescence of a group not treated with a test substance (control group) as a control, the cell survival rate (%) was calculated by using the following equation. From the obtained survival rate, the concentration (IC50 (μM)), at which the number of surviving cells is reduced to 50% of the control, was determined by a curve fitting regression analysis tool using Regression Analysis Tool XLfit5.3.0.8 (IDBS Ltd.).
(§3) Cell survival rate=T/C×100
(§4) T: Amount of luminescence in wells with a test substance
(§5) C: Amount of luminescence in wells with no test substance

HCC827 = assay: as above; format: cell-based; details: Homo sapiens, IFNγ 100 U/mL, 72 hours, number of surviving cells reduced to 50% of control
Procedure: as §1, §2, §3, §4, §5

NCI-N87 = assay: as above; format: cell-based; details: Homo sapiens, IFNγ 100 U/mL, 72 hours, number of surviving cells reduced to 50% of control
Procedure: as §1, §2, §3, §4, §5

GIST-T1 = assay: as above; format: cell-based; details: Homo sapiens, GISTT1, IFNγ 100 U/mL, 72 hours, number of surviving cells reduced to 50% of control
Procedure: as §1, §2, §3, §4, §5

| Structure (SMILES) | inhibitory effect on IDO expression (IDO protein) | suppressive effect on cell growth [1] | pIC50 (NCI-H1975) | pIC50 (HCC827) | pIC50 (NCI-N87) | pIC50 (GIST-T1) |
| --- | --- | --- | --- | --- | --- | --- |
| CC(C)c1cc(-c2n[nH]c(=O)n2-c2ccc3c(ccn3C)c2)c(O)cc1O [ganetespib] | inhibitory effect on IDO expression in a concentration-dependent manner |  |  |  |  |  |
| COc1c(C)cnc(Cn2cnc3c(Cl)nc(N)nc32)c1C [BIIBO21] | inhibitory effect on IDO expression in a concentration-dependent manner |  |  |  |  |  |
| CCc1cc(C(N)=O)ccc1-n1nc(C(C)C)c2c(-n3cnc(-c4cnn(C)c4)c3)ccnc21 [Compound 1, 3-ethyl-4-{3-isopropyl-4-(4-(1-methyl-1H-pyrazol-4-yl)-1H-imidazol-1-yl)-1H-pyrazolo[3,4-b]pyridin-1-yl}benzamide] | inhibitory effect on IDO expression in a concentration-dependent manner | suppressive effect on cell growth in a concentration-dependent manner | 6.09 | 5.85 | 6.42 | 6.57 |
